Laboratory results taken from patent US8962549B2, “Polymeric benzyl carbonate-derivatives” (Baxter International Inc., priority 2008, dated 2015).

Assay: Release of tryptophan from PEG-tryptophan: incubation in cleavage buffer at 37° C., HPLC analysis
Format: physicochemical
Settings: detection at 280 nm
Description: A 0.10 mL aliquot of the PEGylated tryptophan reaction solution from Example 7 was diluted with 0.60 mL PBS buffer (0.10 M, NaCl, 0.10 M, Glycine 0.10M, pH 7.5) and incubated at 37° C. in an oven. Aliquots of 0.10 mL were withdrawn at incubation intervals of 2, 7, 32 and 102 hours, and were quenched with 10 μl of HCl (1.0 N diluted with 0.4 mL 20% acetonitrile containing 0.01% trifluoroacetic acid) for HPLC analysis (0.10 mL injection).
The above procedure was repeated using a cleavage solution with a pH of 8.5 and incubation intervals of 1, 6, 24, and 32 hours.
Both the PEG-tryptophan (Example 7) and cleavage samples were analyzed on C-18 reversed-phase HPLC with detection at 280 nm. The HPLC conditions are the following: C-18 column (Waters Symmetry, 4.6×250 mm), flow rate of 1.0 mL/min, gradient of acetonitrile 20% to 80% over 15 minutes followed by 10 minutes of washing at 80% acetonitrile (all contain 0.01% trifluoroacetic acid).

N[C@@H](Cc1c[nH]c2ccccc12)C(=O)O [Tryptophan]
contents (HPLC integration area) of cleavage reaction (pH 7.5 PBS with glycine 0.10 M, incubation time 2 hours): 596
contents (HPLC integration area) of cleavage reaction (pH 7.5 PBS with glycine 0.10 M, incubation time 7 hours): 647
contents (HPLC integration area) of cleavage reaction (pH 7.5 PBS with glycine 0.10 M, incubation time 32 hours): 1329
contents (HPLC integration area) of cleavage reaction (pH 7.5 PBS with glycine 0.10 M, incubation time 102 hours): 2955
contents (HPLC integration area) of cleavage reaction (pH 8.5 cleavage solution, incubation time 1 hour): 735
contents (HPLC integration area) of cleavage reaction (pH 8.5 cleavage solution, incubation time 6 hours): 1183
contents (HPLC integration area) of cleavage reaction (pH 8.5 cleavage solution, incubation time 24 hours): 2442
contents (HPLC integration area) of cleavage reaction (pH 8.5 cleavage solution, incubation time 32 hours): 2498
